Assay results: patent publication USRE38090E1, “3′-substituted nucleoside derivative” (Taiho Pharmaceutical Co., Ltd., priority 1994, dated 2003)
Values after ≈ are worked out from the molar mass of the structure shown. Counter-ions that a name gives are not always drawn.

What was measured:
Human KB cells = assay: Cytotoxicity, MTT method; type: cell-based; conditions: 72 h, 3 days at 37° C., read-out: IC50 (concentration at which the number of cells was decreased by 50%)
Method: Human KB cells were spread in a proportion of 1×10^5 cells/well on a 96-well plate. After a compound according to the present invention was dissolved in purified water, the solution was diluted to various concentrations with an RPMI 1640 medium and then added to each well, thereby conducting culture. After incubating at 37° C. for 3 days in a 5% CO2-incubator, the number of cells was counted by an MTT method.
The cytotoxicity of each of the compounds tested was expressed by a concentration (IC50) of the compound at which the number of cells was decreased by 50% compared with a control.

[1] = test system: Murine Leukemia P388 cells; assay: Survival effect against murine leukemia P388; type: in vivo; conditions: P388 implanted i.p. in female CDFI mice
Method: Survival effect against murine leukemia P388:
Murine Leukemia P388 cells (1×10^6 cells) were implanted intraperitoneally in three female CDFI mice (aged 8 weeks) per group. On the day subsequent to the implantation and the fifth day, test compounds at varied concentrations were administered intraperitoneally to their corresponding groups of mice. Average survival days of each group were determined to find a survival rate (T/C, %) in accordance with the following equation.

[2] = dose 1 mg/kg i.p. on day 1 and day 5
[3] = dose 3 mg/kg i.p. on day 1 and day 5

melting point	Structure (SMILES)	also measured
139 to 142 °C	CCC#C[C@@]1(O)[C@@H](CO)O[C@@H](n2ccc(=O)[nH]c2=O)[C@@H]1O [Compound 26, 1-(3-C-(1-butynyl)-β-D-ribofuranosyl) uracil]	–
211 to 213 °C	CC#C[C@@]1(O)[C@@H](CO)O[C@@H](n2ccc(=O)[nH]c2=O)[C@@H]1O [Compound 24, 1-(3-C-(1-propynyl)-β-D-ribofuranosyl)uracil]	–
–	CC[C@@]1(O)[C@@H](CO)O[C@@H](n2ccc(=O)[nH]c2=O)[C@@H]1O [Comparative compound 1, 1-(3-C-ethyl-β-D-ribofuranosyl)uracil, reference compound]	IC50 (Human KB cells): > 100000 ng/mL
242 °C (dec.)	C#C[C@@]1(O)[C@@H](CO)O[C@@H](n2cc(F)c(N)nc2=O)[C@@H]1O [Compound 4, 1-(3-C-ethynyl-β-D-ribofuranosyl)-5-fluorocytosine]	–
–	C#C[C@@]1(O)[C@@H](CO)O[C@@H](n2ccc(=O)[nH]c2=O)[C@@H]1O [Compound 7, 1-(3-C-ethynyl-β-D-ribofuranosyl) uracil]	IC50 (Human KB cells): 7.7 ng/mL (≈ 0.0287 µM); survival rate T/C (%) [1, 2]: 144%; survival rate T/C (%) [1, 3]: 150%
225 °C (dec.)	C#C[C@@]1(O)[C@@H](CO)O[C@@H](n2cnc3c(=O)[nH]c(N)nc32)[C@@H]1O [Compound 16, 9-(3-C-ethynyl-β-D-ribofuranosyl) guanine]	–
181 to 184 °C	CCC#C[C@@]1(O)[C@@H](CO)O[C@@H](n2ccc(N)nc2=O)[C@@H]1O (as salt: salt) [Compound 20, 1-(3-C-(1-butynyl)-β-D-ribofuranosyl) cytosine]	–
162 to 165 °C	CC#C[C@@]1(O)[C@@H](CO)O[C@@H](n2ccc(N)nc2=O)[C@@H]1O (as salt: salt) [Compound 18, 1-(3-C-(1-propynyl)-β-D-ribofuranosyl)cytosine]	–
255 °C (dec.)	C#C[C@@]1(O)[C@@H](CO)O[C@@H](n2c(=O)cc[nH]c2=O)[C@@H]1O [Compound 8, 3-(3-C-ethynyl-β-D-ribofuranosyl) uracil]	–
113 to 118 °C	C#C[C@@]1(O)[C@@H](CO)O[C@@H](n2cc(C)c(=O)[nH]c2=O)[C@@H]1O [Compound 12, 1-(3-C-ethynyl-β-D-ribofuranosyl) thymine]	–
194 to 197 °C	C=C[C@@]1(O)[C@@H](CO)O[C@@H](n2ccc(N)nc2=O)[C@@H]1O [Compound 22, 1-(3-C-ethenyl-β-D-ribofuranosyl) cytosine]	–
–	C#C[C@@]1(O)[C@@H](CO)O[C@@H](n2ccc(N)nc2=O)[C@@H]1O [Compound 2, 1-(3-C-ethynyl-β-D-ribofuranosyl) cytosine]	survival rate T/C (%) [1, 2]: 211%; survival rate T/C (%) [1, 3]: 206%
219 to 222 °C	C=C[C@@]1(O)[C@@H](CO)O[C@@H](n2ccc(=O)[nH]c2=O)[C@@H]1O [Compound 28, 1-(3-C-ethenyl-β-D-ribofuranosyl) uracil]	–

Structure (SMILES)	melting point	also measured
C[Si](C)(C)C#C[C@@]1(O)[C@@H](CO)O[C@@H](n2ccc(=O)[nH]c2=O)[C@@H]1O [Compound 35, 1-(3-C-trimethylsilylethynyl-β-D-ribofuranosyl)uracil]	175 to 177 °C	IC50 (Human KB cells): 7.8 ng/mL (≈ 0.0229 µM)
